Publication PMC3690672 (European journal of nuclear medicine and molecular imaging, 2009)
Values joined by “and” are separate entries in the source; they are usually repeats but may differ in a detail not shown here. Equal entries are not always repeated. Structures can show the parent of a compound that is named as a salt. Where two headings read alike, the source gives them in different places.

Columns and labels:
[1] = biological target: T1, P-glycoprotein (P-gp) at the blood-brain barrier (Rattus norvegicus, UniProt Q6PSM0); test: in vivo
[2] = tested on: P-glycoprotein (P-gp) at the blood-brain barrier; assay type: in vivo, rat; settings: tariquidar 15 mg/kg or elacridar 5 mg/kg at 60 min after radiotracer injection
[3] = Tariquidar or elacridar concentrations in plasma and brain by LC/MS; assay type: in vivo; settings: rat, 5 mg/kg; for concentration at 180 min: intravenous
[4] = biological target: T1, P-glycoprotein (P-gp) at the blood-brain barrier; settings: for DV (Logan) of VPM / DV of VPM (2T4K model) / K1 of VPM (2T4K model) / k2 of VPM (2T4K model) / k3 of VPM (2T4K model) / k4 of VPM (2T4K model): whole brain, PET 120 min after, mean±SD
[5] = tested on: multidrug resistance-associated proteins (MRPs), such as MRP1; settings: cited from earlier work
[6] = Hill fit of whole-brain DV vs inhibitor dose

T1 sequence (Q6PSM0 1-1272): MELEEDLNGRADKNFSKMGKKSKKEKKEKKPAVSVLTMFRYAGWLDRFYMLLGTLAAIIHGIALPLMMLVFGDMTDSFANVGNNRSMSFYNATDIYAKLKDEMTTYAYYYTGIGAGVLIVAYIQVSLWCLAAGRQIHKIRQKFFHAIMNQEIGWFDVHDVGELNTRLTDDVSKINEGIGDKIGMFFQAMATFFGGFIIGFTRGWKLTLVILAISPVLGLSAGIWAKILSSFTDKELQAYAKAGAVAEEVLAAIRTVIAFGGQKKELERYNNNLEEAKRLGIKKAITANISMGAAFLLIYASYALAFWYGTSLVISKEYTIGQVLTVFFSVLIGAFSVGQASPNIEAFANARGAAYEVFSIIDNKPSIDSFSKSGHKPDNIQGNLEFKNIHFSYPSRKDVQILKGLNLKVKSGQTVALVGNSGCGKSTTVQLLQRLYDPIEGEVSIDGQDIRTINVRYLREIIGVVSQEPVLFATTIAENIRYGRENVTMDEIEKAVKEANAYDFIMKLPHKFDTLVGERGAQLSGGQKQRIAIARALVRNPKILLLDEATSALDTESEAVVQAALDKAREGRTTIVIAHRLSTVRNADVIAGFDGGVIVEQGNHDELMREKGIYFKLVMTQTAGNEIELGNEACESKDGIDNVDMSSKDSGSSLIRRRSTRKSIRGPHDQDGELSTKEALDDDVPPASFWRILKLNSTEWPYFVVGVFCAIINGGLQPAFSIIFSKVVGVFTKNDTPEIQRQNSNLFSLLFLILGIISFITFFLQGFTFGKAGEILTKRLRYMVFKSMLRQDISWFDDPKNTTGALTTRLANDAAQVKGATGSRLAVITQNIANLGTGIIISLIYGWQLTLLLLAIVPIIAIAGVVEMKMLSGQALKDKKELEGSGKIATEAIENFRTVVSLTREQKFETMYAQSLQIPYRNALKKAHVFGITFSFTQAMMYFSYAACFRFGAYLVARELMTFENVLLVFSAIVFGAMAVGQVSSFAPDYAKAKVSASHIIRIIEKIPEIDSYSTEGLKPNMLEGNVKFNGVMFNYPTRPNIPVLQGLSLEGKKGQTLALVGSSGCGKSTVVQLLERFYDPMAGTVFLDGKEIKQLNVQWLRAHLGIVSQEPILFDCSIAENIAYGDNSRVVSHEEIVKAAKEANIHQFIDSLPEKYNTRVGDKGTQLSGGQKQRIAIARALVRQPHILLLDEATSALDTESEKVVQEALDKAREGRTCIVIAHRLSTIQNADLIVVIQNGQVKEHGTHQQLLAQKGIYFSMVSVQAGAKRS

SMILES: COc1cc2c(cc1OC)CN(CCc1ccc(NC(=O)c3cccc4c(=O)c5cccc(OC)c5[nH]c34)cc1)CC2 [elacridar, elacridar hydrochloride]
- EC50 at 180 min [1]: 0.115 ± 0.0222 µg/mL
- ED50 at 120 min ([1]; Sprague-Dawley, iv): 1.2 ± 0.1 mg/kg
- Time of peak VPM brain uptake (maximum effect) after inhibitor injection [2]: 30 ± 5 min and 30 min
- concentration at 180 min ([3]; brain): 5190 ± 1420 ng/mL
- Kp at 180 min ([3]; brain, iv): 16.8 ± 5.8
- concentration at 180 min ([3]; plasma): 316 ± 61 ng/mL
- DVmax (maximum effect) [4, 6]: 11.4±0.7 ml·ml^−1
- Hill factor n [4, 6]: 5.2±2.8
- Maximum increase in VPM brain distribution (DV) over baseline ([4]; at maximum effective doses, rat brain): up to 11 fold
- Whole-brain DV increase (factor) as compared to baseline scans ([4]; inhibitor 0.3 mg/kg): 1.0±0.6
- Whole-brain DV increase (factor) as compared to baseline scans ([4]; inhibitor 1 mg/kg): 3.5±1.5
- Whole-brain DV increase (factor) as compared to baseline scans ([4]; inhibitor 2 mg/kg): 9.4±1.5
- Whole-brain DV increase (factor) as compared to baseline scans ([4]; inhibitor 5 mg/kg): 8.9±1.4
- Whole-brain DV increase (factor) as compared to baseline scans ([4]; inhibitor 7.5 mg/kg): 11.3±0.2
- DV (Logan) of VPM ([4]; inhibitor 0.3 mg/kg i.v.): 1.22±0.51 (2.9) ml·ml^−1
- DV of VPM (2T4K model) ([4]; inhibitor 0.3 mg/kg i.v.): 1.28±0.54 (3.1) ml·ml^−1
- K1 of VPM (2T4K model) ([4]; inhibitor 0.3 mg/kg i.v.): 0.13±0.10 (16.5) ml·ml^−1·min^−1
- k2 of VPM (2T4K model) ([4]; inhibitor 0.3 mg/kg i.v.): 0.29±0.06 (36.5) min^−1
- k3 of VPM (2T4K model) ([4]; inhibitor 0.3 mg/kg i.v.): 0.14±0.02 (41.4) min^−1
- k4 of VPM (2T4K model) ([4]; inhibitor 0.3 mg/kg i.v.): 0.07±0.01 (16.7) min^−1
- DV (Logan) of VPM ([4]; inhibitor 1 mg/kg i.v.): 4.47±1.51 (0.9) ml·ml^−1
- DV of VPM (2T4K model) ([4]; inhibitor 1 mg/kg i.v.): 4.49±1.51 (2.9) ml·ml^−1
- K1 of VPM (2T4K model) ([4]; inhibitor 1 mg/kg i.v.): 0.57±0.19 (18.1) ml·ml^−1·min^−1
- k2 of VPM (2T4K model) ([4]; inhibitor 1 mg/kg i.v.): 0.33±0.10 (78.9) min^−1
- k3 of VPM (2T4K model) ([4]; inhibitor 1 mg/kg i.v.): 0.29±0.11 (93.2) min^−1
- k4 of VPM (2T4K model) ([4]; inhibitor 1 mg/kg i.v.): 0.19±0.06 (33.3) min^−1
- DV (Logan) of VPM ([4]; inhibitor 2 mg/kg i.v.): 11.72±1.47 (0.6) ml·ml^−1
- DV of VPM (2T4K model) ([4]; inhibitor 2 mg/kg i.v.): 12.00±1.49 (2.4) ml·ml^−1
- K1 of VPM (2T4K model) ([4]; inhibitor 2 mg/kg i.v.): 0.92±0.16 (7.2) ml·ml^−1·min^−1
- k2 of VPM (2T4K model) ([4]; inhibitor 2 mg/kg i.v.): 0.18±0.06 (42.2) min^−1
- k3 of VPM (2T4K model) ([4]; inhibitor 2 mg/kg i.v.): 0.29±0.09 (68.5) min^−1
- k4 of VPM (2T4K model) ([4]; inhibitor 2 mg/kg i.v.): 0.22±0.03 (21.1) min^−1
- DV (Logan) of VPM ([4]; inhibitor 5 mg/kg i.v.): 11.16±1.44 (1.1) ml·ml^−1
- DV of VPM (2T4K model) ([4]; inhibitor 5 mg/kg i.v.): 11.40±1.45 (3.8) ml·ml^−1
- K1 of VPM (2T4K model) ([4]; inhibitor 5 mg/kg i.v.): 0.93±0.26 (17.0) ml·ml^−1·min^−1
- k2 of VPM (2T4K model) ([4]; inhibitor 5 mg/kg i.v.): 0.22±0.06 (58.8) min^−1
- k3 of VPM (2T4K model) ([4]; inhibitor 5 mg/kg i.v.): 0.28±0.05 (79.7) min^−1
- k4 of VPM (2T4K model) ([4]; inhibitor 5 mg/kg i.v.): 0.16±0.01 (35.4) min^−1
- DV (Logan) of VPM ([4]; inhibitor 7.5 mg/kg i.v.): 14.20±0.13 (0.4) ml·ml^−1
- DV of VPM (2T4K model) ([4]; inhibitor 7.5 mg/kg i.v.): 14.55±0.06 (2.6) ml·ml^−1
- K1 of VPM (2T4K model) ([4]; inhibitor 7.5 mg/kg i.v.): 0.98±0.08 (6.4) ml·ml^−1·min^−1
- k2 of VPM (2T4K model) ([4]; inhibitor 7.5 mg/kg i.v.): 0.15±0.02 (43.5) min^−1
- k3 of VPM (2T4K model) ([4]; inhibitor 7.5 mg/kg i.v.): 0.25±0.07 (55.4) min^−1
- k4 of VPM (2T4K model) ([4]; inhibitor 7.5 mg/kg i.v.): 0.22±0.04 (30.3) min^−1
- Inhibition of MRPs, such as MRP1 [5]: do not inhibit
